Assay [1] addresses JAK1 (Homo sapiens (Human), UniProt P23458). The assay can be described thus: Biochemical JAK and Tyk2 kinase assays (LanthaScreen): JAK1. To be noted: 1 h pre-incubation, ATP at Km; pIC50 converted to pKi by Cheng-Prusoff. An outline of the steps:
(§1)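 TR-FRET (520/495 nm ratio) detection of STAT1 pTyr701 phosphorylation on a GFP-STAT1 peptide by GST-tagged JAK kinase. Reactions ran 1 h at room temperature with 1% DMSO after 1 h compound–enzyme–substrate preincubation. pIC50 values converted to pKi via Cheng-Prusoff.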

In assay [2] the target is JAK2 (Homo sapiens (Human), UniProt O60674). In words: Biochemical JAK and Tyk2 kinase assays (LanthaScreen): JAK2. To be noted: 1 h pre-incubation, ATP at Km; pIC50 converted to pKi by Cheng-Prusoff. An outline of the steps:
as §1

The target in assay [3] is JAK3 (Homo sapiens (Human), UniProt P52333). The assay can be described thus: Biochemical JAK and Tyk2 kinase assays (LanthaScreen): JAK3. To be noted: for Ki: 1 h pre-incubation, ATP at Km, pIC50 converted to pKi by Cheng-Prusoff, read-out: JAK 3 (pKi) (converted); for JAK3 (pKi)-JAK1 (pKi): difference of pKi values, selectivity JAK3 over JAK1. An outline of the steps: as §1
Sequence of JAK3 (P52333 whole entry): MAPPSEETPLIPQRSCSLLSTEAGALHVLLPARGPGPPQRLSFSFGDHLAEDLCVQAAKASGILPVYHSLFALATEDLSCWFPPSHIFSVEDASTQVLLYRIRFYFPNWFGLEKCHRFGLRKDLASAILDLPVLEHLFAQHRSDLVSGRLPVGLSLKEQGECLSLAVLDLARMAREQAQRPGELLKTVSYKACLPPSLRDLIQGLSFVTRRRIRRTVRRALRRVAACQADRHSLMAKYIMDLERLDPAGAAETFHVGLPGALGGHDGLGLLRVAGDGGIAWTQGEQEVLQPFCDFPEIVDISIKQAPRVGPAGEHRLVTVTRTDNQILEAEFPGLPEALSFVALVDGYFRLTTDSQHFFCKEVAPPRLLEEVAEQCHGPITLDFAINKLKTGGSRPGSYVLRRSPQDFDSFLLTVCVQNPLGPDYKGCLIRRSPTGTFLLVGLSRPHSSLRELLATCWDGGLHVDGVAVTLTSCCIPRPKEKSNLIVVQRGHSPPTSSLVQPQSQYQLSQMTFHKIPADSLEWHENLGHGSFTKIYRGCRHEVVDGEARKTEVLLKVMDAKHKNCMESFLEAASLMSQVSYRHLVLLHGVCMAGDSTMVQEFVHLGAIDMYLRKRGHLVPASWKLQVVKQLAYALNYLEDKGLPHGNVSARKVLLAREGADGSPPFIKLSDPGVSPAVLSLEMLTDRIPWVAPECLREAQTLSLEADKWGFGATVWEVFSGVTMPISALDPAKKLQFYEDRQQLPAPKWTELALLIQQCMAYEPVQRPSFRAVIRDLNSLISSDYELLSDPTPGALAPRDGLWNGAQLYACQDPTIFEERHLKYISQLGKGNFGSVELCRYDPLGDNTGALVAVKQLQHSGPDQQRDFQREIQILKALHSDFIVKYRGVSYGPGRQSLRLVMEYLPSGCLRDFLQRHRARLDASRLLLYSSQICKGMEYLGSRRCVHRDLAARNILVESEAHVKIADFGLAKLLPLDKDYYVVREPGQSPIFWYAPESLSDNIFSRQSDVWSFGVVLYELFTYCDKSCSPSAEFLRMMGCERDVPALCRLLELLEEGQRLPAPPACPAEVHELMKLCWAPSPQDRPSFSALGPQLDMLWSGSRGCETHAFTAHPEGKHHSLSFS

In assay [4] the test system is IL-2 stimulated pSTAT5 in Tall-1 T cells (JAK3). The assay can be described thus: Cellular JAK3 potency assay: inhibition of IL-2 stimulated pSTAT5 in Tall-1 T cells. The conditions noted are these: IL-2 300 ng/ml, pSTAT5 AlphaLisa, Tall-1 human T cell line; read-out: Tall-1 (pIC50) (converted). The class given is cell-based. An outline of the steps: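 Human Tall-1 T cells (45,000/well) preincubated with compound 1 h at 37 °C, then stimulated with IL-2 (final 300 ng/ml) for 30 min. Lysates read for pSTAT5 (Tyr694/699) by AlphaLISA luminescence. IC50 from signal-versus-concentration curves, reported as pIC50 (mean±SD).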

Assay [5] has as its system IL-2 stimulated pSTAT5 in CD4+ T cells isolated from murine splenocytes (JAK3). The assay can be described thus: Inhibition of IL-2 stimulated pSTAT5 in CD4+ T cells isolated from murine splenocytes. The class given is cell-based. To be noted: Mus musculus, IL-2 7 ng/ml, read-out: pIC50, inhibition of IL-2 stimulated pSTAT5 (converted).

Some results are limits rather than exact numbers.

Sequence of JAK2 (O60674 whole entry): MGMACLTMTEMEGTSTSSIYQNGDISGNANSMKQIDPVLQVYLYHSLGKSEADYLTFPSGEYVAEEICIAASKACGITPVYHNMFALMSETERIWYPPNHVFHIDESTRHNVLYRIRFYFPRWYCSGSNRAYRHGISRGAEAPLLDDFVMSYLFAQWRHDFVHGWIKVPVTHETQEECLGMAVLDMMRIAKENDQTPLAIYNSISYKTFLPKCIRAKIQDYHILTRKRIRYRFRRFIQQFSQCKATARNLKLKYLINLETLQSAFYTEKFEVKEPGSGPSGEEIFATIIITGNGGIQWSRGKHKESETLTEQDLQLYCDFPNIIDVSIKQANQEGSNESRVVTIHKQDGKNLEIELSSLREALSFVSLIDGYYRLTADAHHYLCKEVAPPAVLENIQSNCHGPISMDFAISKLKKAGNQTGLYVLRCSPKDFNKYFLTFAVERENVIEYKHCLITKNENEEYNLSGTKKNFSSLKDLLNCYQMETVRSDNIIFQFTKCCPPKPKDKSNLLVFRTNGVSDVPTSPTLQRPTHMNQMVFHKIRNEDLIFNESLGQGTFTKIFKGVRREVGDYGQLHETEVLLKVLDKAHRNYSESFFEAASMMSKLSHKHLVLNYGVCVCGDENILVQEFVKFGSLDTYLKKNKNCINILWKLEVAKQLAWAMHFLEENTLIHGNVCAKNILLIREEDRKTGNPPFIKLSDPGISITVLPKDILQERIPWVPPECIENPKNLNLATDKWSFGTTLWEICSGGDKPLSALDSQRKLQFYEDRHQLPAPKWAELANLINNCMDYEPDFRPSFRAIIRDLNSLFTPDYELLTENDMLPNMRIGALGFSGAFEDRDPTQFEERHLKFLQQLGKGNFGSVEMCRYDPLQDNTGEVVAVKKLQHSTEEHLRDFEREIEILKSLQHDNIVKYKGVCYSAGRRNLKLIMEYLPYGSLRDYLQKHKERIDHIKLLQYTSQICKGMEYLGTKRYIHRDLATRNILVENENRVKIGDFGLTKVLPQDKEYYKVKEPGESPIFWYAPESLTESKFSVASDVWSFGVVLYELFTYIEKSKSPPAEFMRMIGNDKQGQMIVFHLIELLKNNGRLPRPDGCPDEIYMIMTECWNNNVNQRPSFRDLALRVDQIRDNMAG
Sequence of JAK1 (P23458 whole entry): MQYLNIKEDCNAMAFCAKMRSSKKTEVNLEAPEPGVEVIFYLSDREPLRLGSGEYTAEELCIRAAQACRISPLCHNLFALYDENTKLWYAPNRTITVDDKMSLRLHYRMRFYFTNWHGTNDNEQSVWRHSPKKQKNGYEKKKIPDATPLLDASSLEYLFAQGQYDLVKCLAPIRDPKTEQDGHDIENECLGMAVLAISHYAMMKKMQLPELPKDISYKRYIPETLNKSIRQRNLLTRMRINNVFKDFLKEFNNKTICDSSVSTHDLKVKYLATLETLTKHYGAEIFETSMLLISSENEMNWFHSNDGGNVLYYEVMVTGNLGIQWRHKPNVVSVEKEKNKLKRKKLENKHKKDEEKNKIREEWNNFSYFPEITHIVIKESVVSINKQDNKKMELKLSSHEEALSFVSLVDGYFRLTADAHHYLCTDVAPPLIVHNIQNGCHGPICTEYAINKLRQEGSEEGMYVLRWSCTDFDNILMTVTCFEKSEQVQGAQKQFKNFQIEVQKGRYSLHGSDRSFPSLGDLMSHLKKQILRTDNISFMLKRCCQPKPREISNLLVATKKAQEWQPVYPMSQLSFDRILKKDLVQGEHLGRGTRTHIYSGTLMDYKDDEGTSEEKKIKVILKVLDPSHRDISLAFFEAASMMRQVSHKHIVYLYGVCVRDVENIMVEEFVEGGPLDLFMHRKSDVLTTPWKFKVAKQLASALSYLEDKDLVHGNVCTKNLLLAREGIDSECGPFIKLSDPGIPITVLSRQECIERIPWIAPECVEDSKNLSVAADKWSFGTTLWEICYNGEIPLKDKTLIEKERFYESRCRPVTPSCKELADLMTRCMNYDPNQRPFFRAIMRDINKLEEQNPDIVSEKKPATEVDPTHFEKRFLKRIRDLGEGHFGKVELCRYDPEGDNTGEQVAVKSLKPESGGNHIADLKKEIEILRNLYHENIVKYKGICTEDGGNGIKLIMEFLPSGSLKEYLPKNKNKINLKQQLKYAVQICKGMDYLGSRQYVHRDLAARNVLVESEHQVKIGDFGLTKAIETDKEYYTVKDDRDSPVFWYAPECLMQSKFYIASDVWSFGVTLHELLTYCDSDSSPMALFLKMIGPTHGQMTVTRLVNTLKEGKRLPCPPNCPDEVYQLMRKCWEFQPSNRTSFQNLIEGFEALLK

In the case of `C=CC(=O)N1CC(COc2cc(-c3ccc(O)c(Cl)c3)cn3cncc23)C1` [Example 12, 1-(3-(((6-(3-chloro-4-hydroxyphenyl)imidazo[1,5-a]pyridin-8-yl)oxy)methyl)azetidin-1-yl)prop-2-en-1-one], the “JAK 1 (pKi)” value in assay [1] was “E (E represents a pKi value of 7 or below (Ki of 100 nM or above))”. In addition, the “JAK 2 (pKi)” value in assay [2] was “E (E represents a pKi value of 7 or below (Ki of 100 nM or above))”. In addition, the Ki in assay [3] is 0.0001 to 0.001 µM. For the same molecule, the “JAK3 (pKi)-JAK1 (pKi)” value in assay [3] is “A (A represents a value of 3 or above)”. In addition, the IC50 in assay [4] was 0.0316 to 0.2 µM; in assay [5], less than 1 µM.

For the molecule `C=CC(=O)N1CC(COc2cc(-c3cc(F)c(O)cc3CC)cn3cncc23)C1` [Example 13, 1-(3-(((6-(2-ethyl-5-fluoro-4-hydroxyphenyl)imidazo[1,5-a]pyridin-8-yl)oxy)methyl)azetidin-1-yl)prop-2-en-1-one], the “JAK 1 (pKi)” value in assay [1] is reported as “E (E represents a pKi value of 7 or below (Ki of 100 nM or above))”. Moreover, the “JAK 2 (pKi)” value in assay [2] was “E (E represents a pKi value of 7 or below (Ki of 100 nM or above))”. In addition, the Ki in assay [3] was 0.0001 to 0.001 µM. The “JAK3 (pKi)-JAK1 (pKi)” value in assay [3] is on record as “A (A represents a value of 3 or above)”. In addition, the values for the IC50 in assay [4] and in assay [5] were no more than 0.0316 µM and less than 1 µM, respectively.

The values are drawn from patent US10851102B2, “Imidazole and triazole containing bicyclic compounds as JAK inhibitors” (THERAVANCE BIOPHARMA R&D IP, LLC, priority 2019, dated 2020).
